These results are taken from US20240197634A1, “PHARMACEUTICAL COMPOSITION FOR PREVENTING OR TREATING VIRUS INFECTIONS, COMPRISING POLYMER NANODISCS” (priority 2021, published 2024).

This assay deals with influenza virus. It is filed as cell-based.

Turning to Heparin, the “viral activity after 1/100 dilution (virucidal activity)” value is “recovery in viral activity”.
